# Data from PMC11224282, “Insight into binding of endogenous neurosteroid ligands to the sigma-1 receptor” (Nature Communications, 2024).
# Read-outs that look alike come from different tables or passages of the source.
# Molecular target: T1, xlσ1R E169A (Xenopus laevis, UniProt Q6DCU6, E169A)
# T1 construct: hemagglutinin signal peptide (N); made in house; host or cells: Pichia pastoris GS115
# T1 sequence (Q6DCU6 1-221 E169A): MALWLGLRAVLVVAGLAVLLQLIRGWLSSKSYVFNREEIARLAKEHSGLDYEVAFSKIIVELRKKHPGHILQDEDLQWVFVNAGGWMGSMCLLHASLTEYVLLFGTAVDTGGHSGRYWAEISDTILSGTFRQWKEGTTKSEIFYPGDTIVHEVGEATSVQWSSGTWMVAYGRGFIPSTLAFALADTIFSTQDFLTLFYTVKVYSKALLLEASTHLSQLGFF
# Test: Microscale thermophoresis (MST) binding to xlσ1R E169A mutant
smiles,measurement,setting,value
CC(=O)[C@H]1CC[C@H]2[C@@H]3CCC4=CC(=O)CC[C@]4(C)[C@H]3CC[C@]12C [progesterone],Kd,"MST, xlσ1R E169A, N = 3, mean (± SD), read-out: Kd (mean)",0.98 ± 0.18 µM
same,Kd,"Source Data sheet Supplementary Table 3, E169A, mean of 3, read-out: Kd Mean",0.99 µM
same,Kd,"Source Data sheet Supplementary Table 3, E169A, repeat 1, read-out: Kd Repeat 1",0.92 µM
same,Kd,"Source Data sheet Supplementary Table 3, E169A, repeat 2, read-out: Kd Repeat 2",1.19 µM
same,Kd,"Source Data sheet Supplementary Table 3, E169A, repeat 3, read-out: Kd Repeat 3",0.85 µM
